Reference: patent US7951829B2, “Benzimidazole modulators of VR1” (Janssen Pharmaceutica NV, priority 2006, dated 2011)

Target: T1, hVR1 (Homo sapiens, UniProt Q8NER1)
T1 construct: expressed in transfected cells; host or cells: HEK293
Assay: Human VR1 (hVR1) Functional Assay (FLIPR intracellular calcium, capsaicin challenge)
Format: cell-based
Conditions: capsaicin 0.030 μM, HEK293 cells expressing hVR1; for inhibition at 1 µM: test concentration 1 μM

T1 sequence (Q8NER1 whole entry): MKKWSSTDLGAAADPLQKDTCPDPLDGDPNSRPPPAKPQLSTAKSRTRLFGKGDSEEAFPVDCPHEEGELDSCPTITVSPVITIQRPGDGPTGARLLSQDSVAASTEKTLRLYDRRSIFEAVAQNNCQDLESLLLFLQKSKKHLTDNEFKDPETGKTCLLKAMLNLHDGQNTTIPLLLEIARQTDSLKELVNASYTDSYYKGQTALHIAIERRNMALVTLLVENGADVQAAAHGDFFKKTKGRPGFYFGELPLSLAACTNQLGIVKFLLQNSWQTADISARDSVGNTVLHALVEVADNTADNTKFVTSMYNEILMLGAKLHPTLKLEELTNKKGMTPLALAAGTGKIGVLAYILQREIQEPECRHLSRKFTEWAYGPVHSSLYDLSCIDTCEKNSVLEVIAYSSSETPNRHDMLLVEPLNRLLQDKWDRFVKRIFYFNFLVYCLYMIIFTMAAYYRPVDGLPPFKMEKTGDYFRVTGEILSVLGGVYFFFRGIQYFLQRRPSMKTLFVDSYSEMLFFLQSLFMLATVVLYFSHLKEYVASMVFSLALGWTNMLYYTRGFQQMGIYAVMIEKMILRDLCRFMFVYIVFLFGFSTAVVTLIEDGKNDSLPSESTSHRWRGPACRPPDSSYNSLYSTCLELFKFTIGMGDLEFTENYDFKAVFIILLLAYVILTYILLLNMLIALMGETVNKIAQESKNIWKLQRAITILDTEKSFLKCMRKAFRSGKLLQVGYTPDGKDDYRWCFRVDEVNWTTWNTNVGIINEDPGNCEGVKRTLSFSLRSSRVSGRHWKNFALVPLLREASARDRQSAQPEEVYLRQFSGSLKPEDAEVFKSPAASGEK

Structure (SMILES) | inhibition at 1 µM | IC50
CC(O)c1ccccc1-c1ccc2[nH]c(/C=C/c3ccc(C(C)(C)C)cc3)nc2c1 (centres unmarked) [Cpd 2, (E)-1-(2-{2-[2-(4-tert-butyl-phenyl)-vinyl]-1H-benzimidazol-5-yl}-phenyl)-ethanol] | 100% | 12 nM
CNS(=O)(=O)c1ccccc1-c1ccc2[nH]c(/C=C/c3ccccc3Br)nc2c1 [Cpd 348, (E)-2-{2-[2-(2-bromo-phenyl)-vinyl]-1H-benzimidazol-5-yl}-N-methyl-benzenesulfonamide] | 86% | 162 nM
NS(=O)(=O)c1ccccc1-c1ccc2[nH]c(CCc3ccc(F)c(F)c3)nc2c1 [Cpd 393, 2-{2-[2-(3,4-difluoro-phenyl)-ethyl]-1H-benzimidazol-5-yl}-benzenesulfonamide] | 98% | 10 nM
CNS(=O)(=O)c1ccccc1-c1ccc2[nH]c(/C=C/c3cc(F)cc(F)c3)nc2c1 [Cpd 328, (E)-2-{2-[2-(3,5-difluoro-phenyl)-vinyl]-1H-benzimidazol-5-yl}-N-methyl-benzenesulfonamide] | 99% | 35 nM
CNS(=O)(=O)c1ccccc1-c1ccc2[nH]c(/C=C/c3cccc(Br)c3)nc2c1 [Cpd 338, (E)-2-{2-[2-(3-bromo-phenyl)-vinyl]-1H-benzimidazol-5-yl}-N-methyl-benzenesulfonamide] | 96% | 104 nM
CNS(=O)(=O)c1ccccc1-c1ccc2[nH]c(/C=C/c3ccc(F)cc3)nc2c1 [Cpd 315, (E)-2-{2-[2-(4-fluoro-phenyl)-vinyl]-1H-benzimidazol-5-yl}-N-methyl-benzenesulfonamide] | 100% | 11 nM
NS(=O)(=O)c1ccccc1-c1ccc2[nH]c(CCc3c(F)cccc3F)nc2c1 [Cpd 386, 2-{2-[2-(2,6-difluoro-phenyl)-ethyl]-1H-benzimidazol-5-yl}-benzenesulfonamide] | 96% | 43 nM
CNS(=O)(=O)c1ccccc1-c1ccc2[nH]c(/C=C/c3cc(F)cc(C(F)(F)F)c3)nc2c1 [Cpd 322, (E)-2-{2-[2-(3-fluoro-5-trifluoromethyl-phenyl)-vinyl]-1H-benzimidazol-5-yl}-N-methyl-benzenesulfonamide] | 101% | 14 nM
CNS(=O)(=O)c1ccccc1-c1ccc2[nH]c(/C=C/c3ccccc3Cl)nc2c1 [Cpd 346, (E)-2-{2-[2-(2-chloro-phenyl)-vinyl]-1H-benzimidazol-5-yl}-N-methyl-benzenesulfonamide] | 87% | 264 nM
CNS(=O)(=O)c1ccccc1-c1ccc2[nH]c(/C=C/c3ccc(Cl)c(Cl)c3)nc2c1 [Cpd 316, (E)-2-{2-[2-(3,4-dichloro-phenyl)-vinyl]-1H-benzimidazol-5-yl}-N-methyl-benzenesulfonamide] | 101% | 12 nM
CS(=O)(=O)Nc1ccccc1-c1ccc2[nH]c(/C=C/c3ccc(F)c(F)c3)nc2c1 [Cpd 28, (E)-N-(2-{2-[2-(3,4-difluoro-phenyl)-vinyl]-1H-benzimidazol-5-yl}-phenyl)-methanesulfonamide] | 96% | 250 nM
NS(=O)(=O)c1ccccc1-c1ccc2[nH]c(/C=C/c3cccc(OC(F)(F)F)c3)nc2c1 [Cpd 362, (E)-2-{2-[2-(3-trifluoromethoxy-phenyl)-vinyl]-1H-benzimidazol-5-yl}-benzenesulfonamide] | 99% | 8 nM
NS(=O)(=O)c1ccccc1-c1ccc2[nH]c(/C=C/c3cc(C(F)(F)F)cc(C(F)(F)F)c3)nc2c1 [Cpd 373, (E)-2-{2-[2-(3,5-bis-trifluoromethyl-phenyl)-vinyl]-1H-benzimidazol-5-yl}-benzenesulfonamide] | 99% | 20 nM
NC(=O)c1ccccc1-c1ccc2[nH]c(/C=C/c3ccc(S(=O)(=O)C(F)(F)F)cc3)nc2c1 [Cpd 44, (E)-2-{2-[2-(4-trifluoromethanesulfonyl-phenyl)-vinyl]-1H-benzimidazol-5-yl}-benzamide] | 95% | 300 nM

Further lines, results first:

inhibition at 1 µM | IC50 | Structure (SMILES)
2% |  | CCOc1cccc(/C=C/c2nc3cc(-c4ccccc4S(N)(=O)=O)ccc3[nH]2)c1 [Cpd 425, (E)-2-{2-[2-(3-ethoxy-phenyl)-vinyl]-1H-benzimidazol-5-yl}-benzenesulfonamide]
44% |  | Cn1c(/C=C/c2ccc(C(F)(F)F)cc2)nc2cc(-c3ccccc3NS(C)(=O)=O)ccc21 [Cpd 477, (E)-N-(2-{1-methyl-2-[2-(4-trifluoromethyl-phenyl)-vinyl]-1H-benzimidazol-5-yl}-phenyl)-methanesulfonamide]
98% | 7 nM | CS(=O)(=O)c1ccccc1-c1ccc2[nH]c(/C=C/c3ccc(C(F)(F)F)cc3)nc2c1 [Cpd 422, (E)-5-(2-methanesulfonyl-phenyl)-2-[2-(4-trifluoromethyl-phenyl)-vinyl]-1H-benzimidazole]
98% | 140 nM | CCOc1ccc(/C=C/c2nc3cc(-c4ccccc4NS(C)(=O)=O)ccc3[nH]2)cc1 [Cpd 414, (E)-N-(2-{2-[2-(4-ethoxy-phenyl)-vinyl]-1H-benzimidazol-5-yl}-phenyl)-methanesulfonamide]
99% | 15 nM | NS(=O)(=O)c1ccccc1-c1ccc2[nH]c(CCc3cc(F)ccc3F)nc2c1 [Cpd 395, 2-{2-[2-(2,5-difluoro-phenyl)-ethyl]-1H-benzimidazol-5-yl}-benzenesulfonamide]
98% | 71 nM | CCOC(=O)c1ccccc1-c1ccc2[nH]c(/C=C/c3ccc(C(F)(F)F)cc3)nc2c1 [Cpd 466, (E)-2-{2-[2-(4-trifluoromethyl-phenyl)-vinyl]-1H-benzimidazol-5-yl}-benzoic acid ethyl ester]
96% | 120 nM | CS(=O)(=O)Nc1ccccc1-c1ccc2[nH]c(/C=C/c3ccc(Cl)c(Cl)c3)nc2c1 [Cpd 416, (E)-N-(2-{2-[2-(3,4-dichloro-phenyl)-vinyl]-1H-benzimidazol-5-yl}-phenyl)-methanesulfonamide]
94% | 47 nM | NS(=O)(=O)c1ccccc1-c1ccc2[nH]c(CCc3ccc(F)cc3C(F)(F)F)nc2c1 [Cpd 404, 2-{2-[2-(4-fluoro-2-trifluoromethyl-phenyl)-ethyl]-1H-benzimidazol-5-yl}-benzenesulfonamide]
99% | 11 nM | NS(=O)(=O)c1ccccc1-c1ccc2[nH]c(/C=C/c3ccc(C(F)(F)F)c(F)c3)nc2c1 [Cpd 423, (E)-2-{2-[2-(3-fluoro-4-trifluoromethyl-phenyl)-vinyl]-1H-benzimidazol-5-yl}-benzenesulfonamide]
0% |  | O=S(=O)(CC(F)(F)F)Nc1ccccc1-c1ccc2[nH]c(/C=C/c3ccc(C(F)(F)F)cc3)nc2c1 [Cpd 459, (E)-2,2,2-trifluoro-ethanesulfonic acid (2-{2-[2-(4-trifluoromethyl-phenyl)-vinyl]-1H-benzimidazol-5-yl}-phenyl)-amide]
99% | 5 nM | CC(C)(O)c1ccccc1-c1ccc2[nH]c(C#Cc3ccc(C(F)(F)F)cc3)nc2c1 [Cpd 492, 2-{2-[2-(4-trifluoromethyl-phenylethynyl)-1H-benzimidazol-5-yl]-phenyl}-propan-2-ol]
